Test results reported in patent publication US20100160454A1, “ANTIMICROBIAL AGENTS, COMPOSITIONS AND PRODUCTS CONTAINING THE SAME, AND METHODS OF USING THE COMPOSITIONS AND PRODUCTS” (Eastman Chemical Company, priority 2008, published 2010).

How the values were obtained:
Format in all cases: cell-based
[1] = system: Microsporum canis (ATTC 9084); experiment: Challenge testing against pathogenic fungi, growth rating in broth tubes; design: key: 0: No visible growth; 1: Some growth in tube; 2: Moderate growth in tube; 3: Good growth in tube; 4: Extreme growth in tube
Outline: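 Fungi grown in Sabouraud dextrose broth (M. furfur with 2% olive oil/0.2% Tween 80), 22±2 °C; tubes of 1,4-CHDM-D90 dilutions inoculated, static incubation, subcultured at 3, 14, 30 days, triplicate. Growth rated 0–4: visually (M. canis), INT redox dye (T. rubrum), pellicle formation (M. furfur); 30-day MIC.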

[2] = system: Escherichia coli ATCC 25922; experiment: Microbiological challenge testing in BPW broth, graded subculture counts; conditions: E. Coli
Experimental: (§1) The microorganisms in the table below were used in challenge tests. They were either ATCC (American Type Culture Collection) or “wild type” as indicated. Wild type organisms were problematic organisms previously isolated from chemical products.
(§2) All of the microorganisms were grown in Tryptose Soy Broth (TSB), DIFCO™ available from Becton, Dickinson and Company, containing 1% dextrose. Candida albicans and Aspergillus niger, were incubated at 22° C.+/−2° C. for at least 96 hours. All bacteria were incubated at 35° C.+/−2° C. in a humidified incubator for at least 96 hours.
(§3) The following procedure was followed to determine the amount of each challenge material (inoculum broth) needed to produce a 10^8 CFU/mL challenge, which is equivalent to a final test-sample microbial concentration of 10^5 to 10^6 CFU/mL (CFU=colony forming units).
(§4) Using a sterile pipette, 1 mL of the growth from each TSB culture was transferred into tubes of 9 mL buffered water (pH 7.2 phosphate buffer) and mixed thoroughly. This was repeated to make serial 1:10 dilutions. Then, 0.1 mL of each sample and dilution was inoculated onto agar plates to produce the equivalent of a further 1:10 dilution. (C. albicans and A. niger were inoculated onto SABD and bacteria were inoculated onto Plate Count Agar (PCA), DIFCO™ available from Becton, Dickinson and Company.) (The normal volume plated for most samples was 0.1 mL. Some samples that could be very low in micro-organisms (high dilutions) were plated using 0.5 mL of inoculum, in order to produce reproducible counts.) The samples were distributed on the plates using the spread-plate technique. The spread-plate technique is carried out by spreading the sample over the entire plate surface using a sterile spreading rod while rotating the plate with a rotary auto-plater. After the inoculum was absorbed completely by the agar, each plate was inverted and incubated (fungi at 22° C.+/−2° C. and bacteria at 35° C.+/−2° C.).
(§5) After incubation for at least 48 hours, colonies that had developed on the agar plates were counted (CFU) and recorded with the corresponding dilution. If counting had to be delayed temporarily, plates were refrigerated, preferably no more than 24 hours, until they could be counted. The number of CFU/mL was determined by multiplying the plate count by the dilution factor of the plate counted.
(§6) Turbidity in Nepholemetric Turbidity Units (NTU) was measured for each serial dilution using the HF-Micro 100 Model Turbidimeter. For each microorganism, the plate counts were compared to the turbidity readings.
(§7) Control substrates (“broth alone”) were prepared for each microorganism separately in triplicate by adding 13.5 mL of Buffered Peptone Water broth (BPW) containing 1% dextrose to each 20-mL glass tube, then adding 1.5 mL challenge material to produce a final concentration at time zero of 10^5 to 10^6 CFU/mL and a total volume of 15 mL.
(§8) Test sample substrates were prepared containing each test material listed below at the concentrations shown for challenge testing with each microorganism separately. Sample substrates were prepared in triplicate, except the substrates containing butoxyethanol which were prepared in duplicate. Substrates were prepared by adding BPW containing 1% dextrose to each 20-mL glass tube, then adding the test material in the amount appropriate to achieve the desired weight/volume percent and to achieve a total volume of BPW plus dextrose plus test material of 13.5 mL. Then 1.5 mL challenge material was added to produce a final concentration at time zero of 10^5 to 10^6 CFU/mL and a total test sample substrate volume of 15 mL.

[3] = system: Proteus vulgaris Wild type; experiment: as above
Experimental: as §1, §2, §3, §4, §5, §6, §7, §8

[4] = system: Pseudomonas aeruginosa Wild type; experiment: as above; conditions: P. aeruginosa
Experimental: as §1, §2, §3, §4, §5, §6, §7, §8

Question: Which “M. canis growth rating, 3 day” value ([1]; 0.5% weight/volume) does the source give for `OCC1CCCCC1CO` (stereo not drawn) [1,2-CHDM, 1,2-cyclohexanedimethanol] here?
Answer: 2

Question: What about the “M. canis growth rating, 14 day” value ([1]; 0.5% weight/volume) of the same compound?
Answer: 1

Question: And the “M. canis growth rating, 30 day” value ([1]; 0.5% weight/volume)?
Answer: 1

Question: What about the “M. canis growth rating, 3 day” value ([1]; 1.25% weight/volume) of the same compound?
Answer: 1

Question: And the “M. canis growth rating, 14 day” value ([1]; 1.25% weight/volume)?
Answer: 0

Question: And the “M. canis growth rating, 30 day” value ([1]; 1.25% weight/volume)?
Answer: 0

Question: And the “M. canis growth rating, 3 day” value ([1]; 2.5% weight/volume)?
Answer: 0

Question: What about the “M. canis growth rating, 14 day” value ([1]; 2.5% weight/volume) of the same compound?
Answer: 0

Question: What about the “M. canis growth rating, 30 day” value ([1]; 2.5% weight/volume) of the same compound?
Answer: 0

Question: What about the “M. canis growth rating, 3 day” value ([1]; 5.0% weight/volume) of the same compound?
Answer: 0

Question: What about the “M. canis growth rating, 14 day” value ([1]; 5.0% weight/volume) of the same compound?
Answer: 0

Question: And the “M. canis growth rating, 30 day” value ([1]; 5.0% weight/volume)?
Answer: 0

Question: And the Grade ([2]; 0.5% (wt/vol), 3 day)?
Answer: 5 (More than 10,000 colonies estimated (thus more than 100,000 CFU/mL))

Question: What about the Grade ([2]; 0.5% (wt/vol), 14 day) of the same compound?
Answer: 4 (1000 to 10,000 colonies countable (thus 10,000 CFU/mL to 100,000 CFU/mL))

Question: What about the Grade ([2]; 0.5% (wt/vol), 30 day) of the same compound?
Answer: 4 (1000 to 10,000 colonies countable (thus 10,000 CFU/mL to 100,000 CFU/mL))

Question: And the Grade ([2]; 1.25% (wt/vol), 3 day)?
Answer: 4 (1000 to 10,000 colonies countable (thus 10,000 CFU/mL to 100,000 CFU/mL))

Question: And the Grade ([2]; 1.25% (wt/vol), 14 day)?
Answer: 2 (52 to 100 colonies counted (thus 520 to 1000 CFU/mL))

Question: What about the Grade ([2]; 1.25% (wt/vol), 30 day) of the same compound?
Answer: 3 (100 to 1000 colonies (thus 1000 to 10,000 CFU/mL))

Question: And the Grade ([2]; 2.5% (wt/vol), 3 day)?
Answer: 2 (52 to 100 colonies counted (thus 520 to 1000 CFU/mL))

Question: And the Grade ([2]; 2.5% (wt/vol), 14 day)?
Answer: 0

Question: What about the Grade ([2]; 2.5% (wt/vol), 30 day) of the same compound?
Answer: 0

Question: What about the Grade ([2]; 5.0% (wt/vol), 3 day) of the same compound?
Answer: 0

Question: And the Grade ([2]; 5.0% (wt/vol), 14 day)?
Answer: 0

Question: What about the Grade ([2]; 5.0% (wt/vol), 30 day) of the same compound?
Answer: 0

Question: And the “P. vulgaris growth grade, 3 day” value ([3]; 0.5% weight/volume)?
Answer: 4 (1000 to 10,000 colonies countable (thus 10,000 CFU/mL to 100,000 CFU/mL))

Question: What about the “P. vulgaris growth grade, 13 day” value ([3]; 0.5% weight/volume) of the same compound?
Answer: 4 (1000 to 10,000 colonies countable (thus 10,000 CFU/mL to 100,000 CFU/mL))

Question: What about the “P. vulgaris growth grade, 30 day” value ([3]; 0.5% weight/volume) of the same compound?
Answer: 4 (1000 to 10,000 colonies countable (thus 10,000 CFU/mL to 100,000 CFU/mL))

Question: What about the “P. vulgaris growth grade, 3 day” value ([3]; 1.25% weight/volume) of the same compound?
Answer: 2.3

Question: And the “P. vulgaris growth grade, 13 day” value ([3]; 1.25% weight/volume)?
Answer: 1 (0 to 51 colonies counted (thus 10 to 510 CFU/mL based on 0.1-mL sample))

Question: What about the “P. vulgaris growth grade, 30 day” value ([3]; 1.25% weight/volume) of the same compound?
Answer: 0

Question: What about the “P. vulgaris growth grade, 3 day” value ([3]; 2.5% weight/volume) of the same compound?
Answer: 1 (0 to 51 colonies counted (thus 10 to 510 CFU/mL based on 0.1-mL sample))

Question: What about the “P. vulgaris growth grade, 13 day” value ([3]; 2.5% weight/volume) of the same compound?
Answer: 0

Question: And the “P. vulgaris growth grade, 30 day” value ([3]; 2.5% weight/volume)?
Answer: 0

Question: What about the “P. vulgaris growth grade, 3 day” value ([3]; 5.0% weight/volume) of the same compound?
Answer: 0

Question: What about the “P. vulgaris growth grade, 13 day” value ([3]; 5.0% weight/volume) of the same compound?
Answer: 0

Question: And the “P. vulgaris growth grade, 30 day” value ([3]; 5.0% weight/volume)?
Answer: 0

Question: And the Grade ([4]; 0.5% (wt/vol), 3 day)?
Answer: 4 (1000 to 10,000 colonies countable (thus 10,000 CFU/mL to 100,000 CFU/mL))

Question: What about the Grade ([4]; 0.5% (wt/vol), 13 day) of the same compound?
Answer: 4 (1000 to 10,000 colonies countable (thus 10,000 CFU/mL to 100,000 CFU/mL))

Question: What about the Grade ([4]; 0.5% (wt/vol), 30 day) of the same compound?
Answer: 4 (1000 to 10,000 colonies countable (thus 10,000 CFU/mL to 100,000 CFU/mL))

Question: What about the Grade ([4]; 1.25% (wt/vol), 3 day) of the same compound?
Answer: 2.7

Question: What about the Grade ([4]; 1.25% (wt/vol), 13 day) of the same compound?
Answer: 1 (0 to 51 colonies counted (thus 10 to 510 CFU/mL based on 0.1-mL sample))

Question: What about the Grade ([4]; 1.25% (wt/vol), 30 day) of the same compound?
Answer: 3 (100 to 1000 colonies (thus 1000 to 10,000 CFU/mL))

Question: What about the Grade ([4]; 2.5% (wt/vol), 3 day) of the same compound?
Answer: 1 (0 to 51 colonies counted (thus 10 to 510 CFU/mL based on 0.1-mL sample))

Question: And the Grade ([4]; 2.5% (wt/vol), 13 day)?
Answer: 0

Question: And the Grade ([4]; 2.5% (wt/vol), 30 day)?
Answer: 0

Question: And the Grade ([4]; 5.0% (wt/vol), 3 day)?
Answer: 0

Question: And the Grade ([4]; 5.0% (wt/vol), 13 day)?
Answer: 0

Question: What about the Grade ([4]; 5.0% (wt/vol), 30 day) of the same compound?
Answer: 0

Question: `CCCCOCCO` [EB, 2-butoxyethanol] was tested. Which Grade ([2]; 2.5% (wt/vol), 3 day) did it give?
Answer: 4 (1000 to 10,000 colonies countable (thus 10,000 CFU/mL to 100,000 CFU/mL))

Question: And the Grade ([2]; 2.5% (wt/vol), 14 day)?
Answer: 4 (1000 to 10,000 colonies countable (thus 10,000 CFU/mL to 100,000 CFU/mL))

Question: And the Grade ([2]; 2.5% (wt/vol), 30 day)?
Answer: 4 (1000 to 10,000 colonies countable (thus 10,000 CFU/mL to 100,000 CFU/mL))

Question: What about the Grade ([2]; 5.0% (wt/vol), 3 day) of the same compound?
Answer: 1 (0 to 51 colonies counted (thus 10 to 510 CFU/mL based on 0.1-mL sample))

Question: And the Grade ([2]; 5.0% (wt/vol), 14 day)?
Answer: 0

Question: And the Grade ([2]; 5.0% (wt/vol), 30 day)?
Answer: 0

Question: And the “P. vulgaris growth grade, 3 day” value ([3]; 2.5% weight/volume)?
Answer: 4 (1000 to 10,000 colonies countable (thus 10,000 CFU/mL to 100,000 CFU/mL))

Question: What about the “P. vulgaris growth grade, 13 day” value ([3]; 2.5% weight/volume) of the same compound?
Answer: 4 (1000 to 10,000 colonies countable (thus 10,000 CFU/mL to 100,000 CFU/mL))

Question: What about the “P. vulgaris growth grade, 30 day” value ([3]; 2.5% weight/volume) of the same compound?
Answer: 4 (1000 to 10,000 colonies countable (thus 10,000 CFU/mL to 100,000 CFU/mL))

Question: And the “P. vulgaris growth grade, 3 day” value ([3]; 5.0% weight/volume)?
Answer: 0

Question: What about the “P. vulgaris growth grade, 13 day” value ([3]; 5.0% weight/volume) of the same compound?
Answer: 0

Question: And the “P. vulgaris growth grade, 30 day” value ([3]; 5.0% weight/volume)?
Answer: 0

Question: What about the Grade ([4]; 2.5% (wt/vol), 3 day) of the same compound?
Answer: 4 (1000 to 10,000 colonies countable (thus 10,000 CFU/mL to 100,000 CFU/mL))

Question: And the Grade ([4]; 2.5% (wt/vol), 13 day)?
Answer: 4 (1000 to 10,000 colonies countable (thus 10,000 CFU/mL to 100,000 CFU/mL))

Question: And the Grade ([4]; 2.5% (wt/vol), 30 day)?
Answer: 4 (1000 to 10,000 colonies countable (thus 10,000 CFU/mL to 100,000 CFU/mL))

Question: And the Grade ([4]; 5.0% (wt/vol), 3 day)?
Answer: 0

Question: And the Grade ([4]; 5.0% (wt/vol), 13 day)?
Answer: 0

Question: And the Grade ([4]; 5.0% (wt/vol), 30 day)?
Answer: 0
